Assays:
Conditions in all cases: Compound concentration 1.0 uM
[1] = biological target: Ephrin type-A receptor 5 (Homo sapiens) (UniProt P54756); test: EphA5(h) Eurofins kinase panel
[2] = biological target: T1, Homeodomain-interacting protein kinase 4 (Homo sapiens) (UniProt Q8NE63); test: HIPK4(h) Eurofins kinase panel
T1 sequence (whole entry): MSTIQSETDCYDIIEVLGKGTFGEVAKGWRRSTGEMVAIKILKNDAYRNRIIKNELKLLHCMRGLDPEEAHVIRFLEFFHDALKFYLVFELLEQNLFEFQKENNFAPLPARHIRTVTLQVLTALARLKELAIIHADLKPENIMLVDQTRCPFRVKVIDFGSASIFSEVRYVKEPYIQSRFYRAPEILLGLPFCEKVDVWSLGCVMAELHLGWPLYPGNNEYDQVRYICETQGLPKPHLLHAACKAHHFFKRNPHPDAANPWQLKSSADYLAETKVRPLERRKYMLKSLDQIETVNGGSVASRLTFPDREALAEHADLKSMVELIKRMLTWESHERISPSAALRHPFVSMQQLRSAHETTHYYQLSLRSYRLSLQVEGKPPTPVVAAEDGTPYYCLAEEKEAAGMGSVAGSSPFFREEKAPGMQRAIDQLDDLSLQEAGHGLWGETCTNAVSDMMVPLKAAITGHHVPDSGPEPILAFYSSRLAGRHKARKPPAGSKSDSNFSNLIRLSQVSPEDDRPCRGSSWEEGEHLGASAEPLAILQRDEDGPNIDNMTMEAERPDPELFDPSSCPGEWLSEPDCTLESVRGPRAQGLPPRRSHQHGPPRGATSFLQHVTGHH

[3] = biological target: T2, Mitogen-activated protein kinase kinase kinase kinase 3 (Homo sapiens) (UniProt Q8IVH8); test: MAP4K3(h) Eurofins kinase panel
T2 sequence (whole entry): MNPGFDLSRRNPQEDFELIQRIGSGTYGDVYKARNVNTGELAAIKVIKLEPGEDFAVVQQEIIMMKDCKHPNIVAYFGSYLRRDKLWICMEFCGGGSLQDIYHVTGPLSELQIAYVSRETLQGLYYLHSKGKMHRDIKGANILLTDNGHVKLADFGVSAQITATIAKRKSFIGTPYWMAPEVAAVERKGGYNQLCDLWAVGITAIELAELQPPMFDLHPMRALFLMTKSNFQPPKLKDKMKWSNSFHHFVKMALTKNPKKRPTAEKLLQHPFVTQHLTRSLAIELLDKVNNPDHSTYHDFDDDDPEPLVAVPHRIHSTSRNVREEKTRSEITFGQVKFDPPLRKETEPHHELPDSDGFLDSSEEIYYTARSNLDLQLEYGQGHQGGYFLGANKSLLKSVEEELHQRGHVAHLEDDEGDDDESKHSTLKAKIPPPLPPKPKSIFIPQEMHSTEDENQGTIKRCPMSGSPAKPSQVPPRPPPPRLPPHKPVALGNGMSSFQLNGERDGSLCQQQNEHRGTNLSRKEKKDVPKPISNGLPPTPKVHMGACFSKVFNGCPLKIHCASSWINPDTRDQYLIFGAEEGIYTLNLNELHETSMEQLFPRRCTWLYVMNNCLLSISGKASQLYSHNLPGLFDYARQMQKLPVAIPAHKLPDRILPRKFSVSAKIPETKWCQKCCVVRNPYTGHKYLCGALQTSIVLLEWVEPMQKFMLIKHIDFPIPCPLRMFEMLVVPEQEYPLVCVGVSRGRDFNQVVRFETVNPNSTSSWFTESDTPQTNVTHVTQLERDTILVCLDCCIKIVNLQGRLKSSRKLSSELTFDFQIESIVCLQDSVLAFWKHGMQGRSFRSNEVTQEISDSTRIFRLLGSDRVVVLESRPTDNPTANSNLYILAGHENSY

[4] = biological target: T3, Serine/threonine-protein kinase D1 (Homo sapiens) (UniProt Q15139); test: PKCmu (h) Eurofins kinase panel
T3 sequence (whole entry): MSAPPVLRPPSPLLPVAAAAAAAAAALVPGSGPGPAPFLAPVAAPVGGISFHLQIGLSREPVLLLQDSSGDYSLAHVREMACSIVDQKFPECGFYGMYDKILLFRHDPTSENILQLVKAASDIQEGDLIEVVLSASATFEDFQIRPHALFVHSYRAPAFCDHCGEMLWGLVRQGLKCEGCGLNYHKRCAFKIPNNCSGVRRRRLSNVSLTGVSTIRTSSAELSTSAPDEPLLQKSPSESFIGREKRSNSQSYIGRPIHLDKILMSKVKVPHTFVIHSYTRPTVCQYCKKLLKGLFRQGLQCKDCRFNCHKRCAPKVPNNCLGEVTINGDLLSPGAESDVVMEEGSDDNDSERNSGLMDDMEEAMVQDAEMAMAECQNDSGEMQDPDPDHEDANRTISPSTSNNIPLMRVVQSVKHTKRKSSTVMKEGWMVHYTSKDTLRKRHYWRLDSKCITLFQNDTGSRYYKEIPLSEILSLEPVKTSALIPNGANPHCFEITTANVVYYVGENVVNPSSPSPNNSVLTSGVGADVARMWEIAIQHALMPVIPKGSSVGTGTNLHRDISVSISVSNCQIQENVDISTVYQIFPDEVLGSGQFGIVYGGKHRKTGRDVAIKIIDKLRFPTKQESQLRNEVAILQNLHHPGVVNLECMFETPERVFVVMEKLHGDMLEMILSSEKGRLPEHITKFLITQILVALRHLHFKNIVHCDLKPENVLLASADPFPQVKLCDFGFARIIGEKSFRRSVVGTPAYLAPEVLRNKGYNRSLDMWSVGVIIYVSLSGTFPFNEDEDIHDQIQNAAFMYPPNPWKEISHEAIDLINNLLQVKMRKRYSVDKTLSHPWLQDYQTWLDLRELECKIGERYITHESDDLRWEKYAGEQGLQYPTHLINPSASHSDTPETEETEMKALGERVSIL

[5] = biological target: Protein kinase C theta type (Homo sapiens) (UniProt Q04759); test: PKCtheta (h) Eurofins kinase panel
[6] = biological target: Tyrosine-protein kinase SYK (Homo sapiens) (UniProt P43405); test: Syk(h) Eurofins kinase panel
[7] = biological target: Wee1-like protein kinase (Homo sapiens) (UniProt P30291); test: Wee1(h) Eurofins kinase panel
[8] = biological target: Mitogen-activated protein kinase 3 (Homo sapiens) (UniProt P27361); test: MAPK1(h) Eurofins kinase panel

Measured: % residual kinase activity

Sequence of Mitogen-activated protein kinase 3 (Homo sapiens) (P27361 whole entry, looked up): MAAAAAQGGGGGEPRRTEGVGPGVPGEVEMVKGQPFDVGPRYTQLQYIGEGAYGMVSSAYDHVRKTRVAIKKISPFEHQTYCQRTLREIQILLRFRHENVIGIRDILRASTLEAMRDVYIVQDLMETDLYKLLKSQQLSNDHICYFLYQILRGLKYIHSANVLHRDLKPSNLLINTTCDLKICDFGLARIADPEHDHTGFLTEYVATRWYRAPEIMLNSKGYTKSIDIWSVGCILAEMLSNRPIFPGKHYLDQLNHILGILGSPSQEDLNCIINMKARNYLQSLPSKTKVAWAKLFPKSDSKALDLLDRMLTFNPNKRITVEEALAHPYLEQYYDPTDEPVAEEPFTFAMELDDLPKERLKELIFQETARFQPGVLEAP
Sequence of Ephrin type-A receptor 5 (Homo sapiens) (P54756 whole entry): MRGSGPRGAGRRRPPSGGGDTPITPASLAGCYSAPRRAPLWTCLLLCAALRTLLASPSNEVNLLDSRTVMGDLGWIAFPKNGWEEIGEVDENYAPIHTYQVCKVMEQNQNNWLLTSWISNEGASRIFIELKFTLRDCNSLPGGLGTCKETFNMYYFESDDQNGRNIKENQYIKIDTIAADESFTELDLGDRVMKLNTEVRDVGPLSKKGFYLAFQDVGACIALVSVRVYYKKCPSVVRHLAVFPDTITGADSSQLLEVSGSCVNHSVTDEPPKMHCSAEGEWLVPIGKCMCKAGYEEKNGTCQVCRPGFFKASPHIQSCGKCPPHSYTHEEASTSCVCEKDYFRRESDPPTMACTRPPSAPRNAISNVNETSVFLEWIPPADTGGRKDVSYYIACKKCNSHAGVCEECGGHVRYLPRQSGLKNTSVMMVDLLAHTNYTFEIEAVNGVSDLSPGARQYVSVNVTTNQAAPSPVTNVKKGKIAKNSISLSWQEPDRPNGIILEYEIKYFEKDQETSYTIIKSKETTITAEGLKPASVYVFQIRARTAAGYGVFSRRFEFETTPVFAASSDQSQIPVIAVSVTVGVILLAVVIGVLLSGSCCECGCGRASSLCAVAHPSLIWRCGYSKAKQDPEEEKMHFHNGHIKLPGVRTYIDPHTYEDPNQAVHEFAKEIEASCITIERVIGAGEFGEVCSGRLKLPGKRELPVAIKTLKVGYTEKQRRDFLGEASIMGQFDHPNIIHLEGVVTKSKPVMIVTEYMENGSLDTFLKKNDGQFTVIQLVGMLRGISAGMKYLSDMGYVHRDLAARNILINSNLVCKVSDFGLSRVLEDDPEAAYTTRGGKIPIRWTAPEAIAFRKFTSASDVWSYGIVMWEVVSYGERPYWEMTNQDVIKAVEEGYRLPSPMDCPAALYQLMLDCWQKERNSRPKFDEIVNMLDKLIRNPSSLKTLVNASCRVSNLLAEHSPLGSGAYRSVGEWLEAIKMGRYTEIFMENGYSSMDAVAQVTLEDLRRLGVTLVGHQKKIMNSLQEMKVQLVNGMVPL
Sequence of Protein kinase C theta type (Homo sapiens) (Q04759 whole entry, looked up): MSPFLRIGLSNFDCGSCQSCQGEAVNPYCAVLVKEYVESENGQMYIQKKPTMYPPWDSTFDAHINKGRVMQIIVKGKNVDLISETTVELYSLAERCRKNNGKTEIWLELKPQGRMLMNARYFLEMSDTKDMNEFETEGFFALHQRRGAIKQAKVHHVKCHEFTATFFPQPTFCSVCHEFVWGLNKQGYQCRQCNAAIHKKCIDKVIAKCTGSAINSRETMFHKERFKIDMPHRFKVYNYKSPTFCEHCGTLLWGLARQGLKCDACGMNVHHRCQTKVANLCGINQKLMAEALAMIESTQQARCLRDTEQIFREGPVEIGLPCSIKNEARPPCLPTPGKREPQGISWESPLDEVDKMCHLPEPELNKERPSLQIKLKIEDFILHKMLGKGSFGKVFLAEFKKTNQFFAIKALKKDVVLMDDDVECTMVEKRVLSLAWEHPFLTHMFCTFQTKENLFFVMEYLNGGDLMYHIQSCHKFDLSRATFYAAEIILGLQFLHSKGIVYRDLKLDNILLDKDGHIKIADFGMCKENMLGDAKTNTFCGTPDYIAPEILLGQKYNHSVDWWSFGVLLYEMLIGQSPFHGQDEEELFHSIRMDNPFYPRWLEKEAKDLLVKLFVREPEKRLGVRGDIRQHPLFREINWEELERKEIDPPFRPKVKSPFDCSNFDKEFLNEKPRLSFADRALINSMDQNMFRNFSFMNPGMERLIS
Sequence of Wee1-like protein kinase (Homo sapiens) (P30291 whole entry, looked up): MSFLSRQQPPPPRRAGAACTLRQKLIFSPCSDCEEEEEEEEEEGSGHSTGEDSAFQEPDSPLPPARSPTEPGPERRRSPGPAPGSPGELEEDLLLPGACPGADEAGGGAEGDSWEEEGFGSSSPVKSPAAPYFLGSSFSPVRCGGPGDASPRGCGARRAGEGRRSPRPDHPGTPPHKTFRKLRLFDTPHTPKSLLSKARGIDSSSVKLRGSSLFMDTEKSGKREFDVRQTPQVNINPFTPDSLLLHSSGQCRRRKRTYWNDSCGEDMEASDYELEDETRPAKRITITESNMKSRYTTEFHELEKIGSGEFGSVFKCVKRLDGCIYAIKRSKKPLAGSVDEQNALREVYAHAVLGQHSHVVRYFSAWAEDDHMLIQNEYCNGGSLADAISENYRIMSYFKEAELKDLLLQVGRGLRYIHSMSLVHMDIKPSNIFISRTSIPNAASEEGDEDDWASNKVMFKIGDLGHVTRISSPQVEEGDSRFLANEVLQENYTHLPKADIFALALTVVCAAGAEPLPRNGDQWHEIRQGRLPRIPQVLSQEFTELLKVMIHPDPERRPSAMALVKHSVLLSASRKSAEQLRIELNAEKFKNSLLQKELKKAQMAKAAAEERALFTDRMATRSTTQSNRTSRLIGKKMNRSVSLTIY

CCc1ccccc1C(=O)Nc1n[nH]c2c(C)c(F)c(C3C(C#N)=C(C)N(C)C(C)=C3C#N)cc12 [BAY-3827]
inactive: [1] 89% | [2] 105% | [3] 78% | [4] 96% | [5] 33% | [6] 106% | [7] 96% | [8] 95%
